Values joined by “and” are separate entries in the source; they are usually repeats but may differ in a detail not shown here. Identical values can stand only once.
Experiments:
[1] = system: rats subjected to Li-pilo induced SE; experiment: Example 1: Timm staining, mossy fiber sprouting in hippocampus; format: in vivo, rat; settings: pilo-DZP rats
Experimental: At 2 months after the onset of spontaneous recurrent seizures, mossy fiber sprouting was examined on rats in the chronic period exposed to the test compound or DZP and in 3 saline-saline rats. Animals were deeply anaesthetized and perfused transcardially with saline followed by 100 ml of 1.15% (w/v) Na2S in 0.1 M phosphate buffer, and 100 ml of 4% (v/v) formaldehyde in 0.1 M phosphate buffer. Brains were removed from skull, post-fixed in 4% formaldehyde during 3-5 h and 40 μm sections were cut on a sliding vibratome and mounted on gelatin-coated slides.
The following day, sections were developed in the dark in a 26° C. solution of 50% (w/v) arabic gum (160 ml), sodium citrate buffer (30 ml), 5.7% (w/v) hydroquinone (80 ml) and 10% (w/v) silver nitrate (2.5 ml) during 40-45 min. The sections were then rinsed with tap water at 40° C. during at least 45 min, rinsed rapidly with distilled water and allowed to dry. They were dehydrated in ethanol and coverslipped.
Mossy fiber sprouting was evaluated according to criteria previously described in dorsal hippocampus (Cavazos et al., 1991, J Neurosci 11:2795-2803.), which are follows: 0—no granules between the tips and crest of the DG; 1—sparse granules in the supragranular region in a patchy distribution between the tips and crest of DG; 2—more numerous granules in a continuous distribution between the tips and crest of DG; 3—prominent granules in a continuous pattern between tips and crest, with occasional patches of confluent granules between tips and crest; 4—prominent granules that form a confluent dense laminar band between tips and crest and 5—confluent dense laminar band of granules that extends into the inner molecular layer.

[2] = system: rats subjected to Li-pilo induced SE; experiment: Example 1: quantification of cell densities in hippocampus, thalamus and cortex after Li-pilo SE; format: in vivo, rat; settings: pilo-DZP rats
Experimental: (§1) The effects of increasing doses of the Test Compound were studied on 3 groups of rats. The animals of the first group received 10 mg/kg of the test compound, i.p., 1 h after the onset of SE (pilo-TC10) while the animals of groups 2 and 3 received 30 and 60 mg/kg of the Test Compound (pilo-TC30 and pilo-TC60), respectively.
(§2) The control group received saline instead of pilocarpine and the Test Compound (saline-saline). […] Pilo-DZP received a second injection of 1 mg/kg DZP on the day of SE at about 10 h after the first one. Thereafter, Pilo-DZP and saline-saline rats received twice daily an equivalent volume of saline.
Quantification of cell densities was performed at 6 days after SE on 8 pilo-DZP, 8 pilo-TC10, 7 pilo-TC30, 7 pilo-TC60, and 6 saline-saline rats. […] Counts involved only cells larger than 10 μm, smaller ones being considered as glial cells.
For the comparison of the characteristics of SE in pilo-saline and pilo-test compound animals, a non-paired Student's t-test was used. The comparison between the number of rats seizing in both groups was performed by means of a Chi square test. For neuronal damage, statistical analysis between groups was performed using ANOVA followed by a Fisher's test for multiple comparisons using the Statview software (Fisher R A, 1946a, Statistical Methods for Research Workers (10th edition) Oliver & Boyd, Edinburgh; Fisher R A, 1946b, The Design of Experiments (4th edition) Oliver & Boyd, Edinburgh)

[3] = system: rats subjected to li-pilo SE; experiment: Example 2: mortality over the first 48 h after Li-pilo SE; format: in vivo, rat; parameters: concentration or dose not given beside the values; settings: DZP
[4] = system: rats subjected to Li-pilo induced SE; experiment: Example 1: latency to and frequency of spontaneous recurrent seizures (SRS), lithium-pilocarpine model; format: in vivo, rat
Experimental: (§3) The bilateral EEG cortical activity was recorded during the whole duration of SE and behavioral changes were noted.
as §1, §2
The effects of the test compound on the EEG and on the latency to occurrence of SRS were investigated by daily video recording of the animals for 10 h per day and the recording of the electrographic activity twice a week for 8 h.
To calculate the frequency of SRS in pilocarpine-exposed rats, the seizure severity and distinguished stage III (clonic seizures of facial muscles and anterior limbs) and stage IV-V seizures (rearing and falling) was measured. The frequency of stage III SRS per week in pilo-DZP and pilo-test compound rats was variable amongst the groups. It was low, constant in the pilo-DZP and pilo-TC60 (with early SRS onset) groups during the first 3 weeks and had disappeared during the 4th week in the pilo-DZP group. […] The frequency of more severe stage IV-V SRS was highest during the first week in most groups, except pilo-TC30 and TC60 with late seizure onset where the SRS frequency was constant over the whole 4 weeks in TC30 group and over the first two weeks in the pilo-TC60 group with late SRS onset in which no stage IV-V seizures where no seizures recorded after the second week.

[5] = system: rats subjected to li-pilo SE; experiment: Example 2: quantification of cell densities 14 days after li-pilo SE;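 also: Thionine-stained 20 µm brain sections, neurons with cell bodies above 10 µm counted, value is the mean of 12 fields per structure from three adjacent sections, both sides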
Experimental: All rats received lithium chloride (3 meq/kg, i.p., Sigma, St Louis, Mo., U.S.A.) and about 20 h later, all animals received also methylscopolamine bromide (1 mg/kg, s.c., Sigma) that was administered to limit the peripheral effects of the convulsant. […] The effects of increasing doses of TC were studied in 5 groups of rats. […] The control group received vehicle instead of pilocarpine and TC.
For neuronal counting, animals were deeply anesthetized with 1.8 g/kg pentobarbital (Dolethal®, Vetoquinol, Lure, France). Brains were then removed and frozen. Serial 20 μm slices were cut in a cryostat, air-dried during several days before thionine staining. […] The grid of counting was placed on a well defined area of the cerebral structure of interest and counting was carried out with a microscopic enlargement of 200- or 400-fold defined for each single cerebral structure. Cell counts were performed twice on each side of three adjacent sections for each region by a single observer unaware of the animal's treatment. The number of cells obtained in the 12 counted fields in each cerebral structure was averaged. This procedure was used to minimize the potential errors that could result from double counting leading to overestimation of cell numbers. […] Counts involved only neurons with cell bodies larger than 10 μm. Cells with small cell bodies were considered as glial cells and were not counted.
For neuronal damage and epileptogenesis, statistical analysis between groups was performed by means of a one-way analysis of variance followed by a post-hoc Dunnett or Fisher test using the Statistica software.

[6] = system: rats subjected to Li-pilo induced SE; experiment: Example 1: mortality induced by lithium-pilocarpine status epilepticus; format: in vivo, rat; settings: pilo-DZP, 2 mg/kg i.m. 1 h after onset of SE
Experimental: as §3, §1, §2

[7] = system: rats subjected to li-pilo SE; experiment: Example 2: latency to and frequency of spontaneous seizures (video recording); format: in vivo, rat; settings: DZP group, 2.5 mg/kg i.m.; 2.5 mg/kg
Experimental: The effects of DZP and the 4 doses of TC on epileptogenesis were investigated by daily video recording of the animals for 10 h per day. Video recording was performed for 4 weeks during which the occurrence of the first seizure was noted as well as the total number of seizures over the whole period. Animals were then taken off the video recording system and kept for 4 additional weeks in our animal facilities before they were sacrificed after a total period of 8 weeks of epilepsy.

[8] = pilo-DZP (DZP 2.5 mg/kg i.m.), 14 days after li-pilo SE

## CN1C(=O)CN=C(c2ccccc2)c2cc(Cl)ccc21 [DZP, diazepam, reference compound]
[1]
  Timm score in the upper blade of the dentate gyrus, mean: 2.8±0.8
[2]
  cell loss vs saline-saline, CA1 pyramidal cell layer: 70% and 75%
  cell loss vs saline-saline, CA3a: 54%
  cell loss vs saline-saline, CA3b: 31%
  cell loss vs saline-saline, hilus of dentate gyrus: 73%
  cell loss vs saline-saline, lateral thalamic nucleus: 91%
  cell loss vs saline-saline, mediodorsal thalamic nucleus: 56%
  cell loss vs saline-saline, piriform cortex layer II: 53%
  cell loss vs saline-saline, ventral entorhinal cortex layers III-IV: 44%
  cell loss, piriform cortex layers III-IV: total
  damage vs saline-saline, dorsal entorhinal cortex layer II: 9%
  damage vs saline-saline, dorsal entorhinal cortex layers III-IV: 15%
  damage, ventral entorhinal cortex layer II: totally preserved
[3]; group for cell counting at 14 days
  mortality over the first 48 h after SE: 36%
[3]; group for latency to SRS and late cell counting
  mortality over the first 48 h after SE: 7%
[4]; first week, pilo-DZP group
  frequency of stage IV-V SRS: 11.3 SRS per week
[4]; pilo-DZP rats
  latency to SRS: 18.2 ± 6.9 days
[5]; DZP group, 14 days after SE
  neurons surviving in entorhinal cortex, dorsal and ventral: 27-81%
[5]; DZP rats, 14 days after SE
  damage vs control, dorsal entorhinal cortex layer II: 18%
  damage vs control, dorsal entorhinal cortex layers III-IV: 24%
  damage vs control, ventral entorhinal cortex layer II: 22% and 19%
  damage vs control, ventral entorhinal cortex layers III/IV: 74% and 73%
  neuronal damage, amygdala central nucleus: no neuronal damage
  neuronal drop out vs control, CA1 pyramidal cell layer: 85%
  neuronal drop out vs control, amygdala basolateral nucleus: 73%
  neuronal drop out vs control, amygdala medial dorsal anterior nucleus: 53%
  neuronal drop out vs control, thalamus central medial nucleus: 34%
  neuronal drop out vs control, thalamus dorsolateral medial dorsal nucleus: 40%
  neuronal drop out vs control, thalamus mediodorsal central nucleus: 18%
  neuronal drop out vs control, thalamus mediodorsal lateral nucleus: 24%
  neuronal loss vs control, CA3 region: 40%
  neuronal loss vs control, amygdala medial ventral posterior nucleus: 38%
  neuronal loss vs control, hilus of dentate gyrus: 65% and 66%
  neuronal loss vs control, piriform cortex dorsal layer II: 66%
  neuronal loss vs control, piriform cortex layer III: 94%
  neuronal loss vs control, piriform cortex ventral layer II: 89%
  neuronal loss vs control, thalamus mediodorsal nucleus: 49%
  neuronal loss vs control, ventral lateral division of the dorsolateral nucleus: 90%
[5]; [8]
  number of neuronal cell bodies: Amygdala Basolateral: 12.8 ± 5.3
  number of neuronal cell bodies: Amygdala Medial, dorsal anterior: 40.0 ± 2.5
  number of neuronal cell bodies: Amygdala Medial, ventral posterior: 21.8 ± 2.4
  number of neuronal cell bodies: Cerebral cortex Entorhinal, layer II, dorsal: 23.5 ± 0.7
  number of neuronal cell bodies: Cerebral cortex Entorhinal, layer II, ventral: 21.7 ± 1.3
  number of neuronal cell bodies: Cerebral cortex Entorhinal, layer III/IV, dorsal: 22.3 ± 0.5
  number of neuronal cell bodies: Cerebral cortex Entorhinal, layer III/IV, ventral: 7.7 ± 2.3
  number of neuronal cell bodies: Cerebral cortex Piriform, layer II, dorsal: 12.6 ± 4.2
  number of neuronal cell bodies: Cerebral cortex Piriform, layer II, ventral: 3.6 ± 0.7
  number of neuronal cell bodies: Cerebral cortex Piriform, layer III: 1.2 ± 1.2
  number of neuronal cell bodies: Hippocampus CA1 area: 10.9 ± 1.9
  number of neuronal cell bodies: Hippocampus CA3 area: 31.3 ± 2.9
  number of neuronal cell bodies: Hippocampus Hilus: 33.5 ± 3.0
  number of neuronal cell bodies: Thalamus Central medial: 74.2 ± 7.4
  number of neuronal cell bodies: Thalamus Dorsolateral, medial, dorsal: 61 ± 6.3
  number of neuronal cell bodies: Thalamus Dorsolateral, ventral lateral: 9.7 ± 2.5
  number of neuronal cell bodies: Thalamus Mediodorsal central: 26.3 ± 1.8
  number of neuronal cell bodies: Thalamus Mediodorsal lateral: 19.6 ± 0.8
  number of neuronal cell bodies: Thalamus Mediodorsal medial: 16.4 ± 1.9
[6]
  mortality during the first 48 h after SE: 23%
[7]
  Latency to the first spontaneous seizure: 15.5 ± 2.3 days and 15.5 ± 2.34 days

— patent publication US20110152362A1, “METHODS OF TREATING EPILEPTOGENESIS AND EPILEPSY” (priority 2004, published 2011)
